From patent publication US20100227884A1 (priority 2007, published 2010)

Key:
Assay type in all cases: in vivo
Botrytis cinerea [1] = assay: Test Example 2: curative effect on Botrytis disease of cucumber; conditions: cucumber (Sagami Hanjiro), wettable powder, 200 ppm foliar spray after inoculation, 12° C. for 2 days under high humidity
Description: (§1) The area of lesions on the test plants at testing was visually observed, and the control effect was evaluated by comparing the area of lesions on test plants treated with the invented compound with the area of lesions on untreated plants.
Test for showing curative effect on Botrytis disease of cucumber (Botrytis cinerea):
Sand soil was packed in a plastic pot, and seeds of cucumber (variety: Sagami Hanjiro) were sowed therein and grown for 12 days in a greenhouse. A PDA medium containing spores of Botrytis cinerea was placed on the surface of leaves of the cucumber to inoculate the surface of leaves of the cucumber. Then, the wettable powder of each of the invented compounds (1) and (2) and the comparative compound (A) was diluted with water to a concentration of 200 ppm and was sprayed onto the foliage of the cucumber so that a sufficient amount of the compound would be applied to the surface of leaves of the cucumber. After spraying, the plant was air-dried and left at 12° C. for 2 days under high humidity, and then the area of lesions was examined.
As a result, the lesion area on the plant treated with the invented compounds (1) and (2) was respectively less than 11% and less than 15% of the lesion area on the plant of untreated plant. The lesion area on the plant treated with the comparative compound (A) was 98% of the untreated plant.

Magnaporthe grisea = conditions: rice (Nihonbare), flowable formulation, 500 ppm foliar spray before inoculation, 5 days after inoculation
Botrytis cinerea [2] = assay: Test Example 1: preventive effect on Botrytis disease of cucumber; conditions: cucumber (Sagami Hanjiro), flowable formulation, 200 ppm foliar spray before inoculation, 12° C. for 5 days under high humidity
Description: as §1
Test for showing preventive effect on Botrytis disease of cucumber (Botrytis cinerea):
Sand soil was packed in a plastic pot, and seeds of cucumber (variety: Sagami Hanjiro) were sowed therein and grown for 12 days in a greenhouse. Each of the invented compounds (1)-(5) and the comparative compound (A) was formulated into flowable formulation in accordance with Formulation Example 6, and it was diluted with water to a given concentration (200 ppm) and was sprayed onto the foliage of the cucumber so that a sufficient amount of the compound would be applied to the surface of leaves of the cucumber. After spraying, the plant was air-dried and PDA medium containing spores of Botrytis cinerea was placed on the surface of leaves of the cucumber. After the inoculation, the plant was left at 12° C. for 5 days under high humidity, and then the area of lesions was examined. As a result, the lesion area on the plant treated with the invented compounds (1)-(5) was less than 10% of the lesion area on the untreated plant. The lesion area on the plant treated with the comparative compound (A) was 98% of the untreated plant.

Row | SMILES | lesion area on the treated plant as % of the lesion area on the untreated plant (Botrytis cinerea [1]) | lesion area on the treated plant as % of the lesion area on the untreated plant (Magnaporthe grisea) [%] | lesion area on the treated plant as % of the lesion area on the untreated plant (Botrytis cinerea [2]) [%]
1 | CC(C)CCOc1cccc(CNC(=O)c2ccc3ncccc3c2)c1 [comparative compound (A), N-(3-(3-methylbutoxy)phenyl)methyl-quinoline-6-carboxamide] | 98% | 98 | 98
2 | COc1cccc(CNC(=O)c2ccc3ncccc3c2)c1F [invented compound (1), N-(2-fluoro-3-methoxyphenyl)methyl-quinoline-6-carboxamide] | less than 11% |  | 
3 | CCOc1cccc(CNC(=O)c2ccc3ncccc3c2)c1F [invented compound (2), N-(3-ethoxy-2-fluorophenyl)methyl-quinoline-6-carboxamide] | less than 15% |  | 
